In PubChem BioAssay AID248 (DTP/NCI, 2004):
Toxic doses and inconclusive results are not listed. Rule as the data show it: active = T/C of 150% or more; inactive = T/C below 125%.

Test system: L1210 leukemia ip in BDF1 mice, survival T/C
Assay: NCI In Vivo Anticancer Drug Screen. Data for tumor model L1210 Leukemia (intraperitoneal) in B6D2F1 (BDF1) mice
Settings: endpoint: mean survival time, higher = longer survival
In short: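 Survival endpoint. Drug-treated group vs vehicle group, expressed as T divided by C. Tumor passaged by transplantation.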

[1] = dose: 50.0 mg/kg/injection, schedule: Q01DX001 (ip), vehicle: saline
[2] = dose: 100.0 mg/kg/injection, schedule: Q01DX001 (ip), vehicle: saline
[3] = dose: 200.0 mg/kg/injection, schedule: Q01DX001 (ip), vehicle: saline
[4] = dose: 400.0 mg/kg/injection, schedule: Q01DX001 (ip), vehicle: saline
[5] = dose: 100.0 mg/kg/injection, schedule: Q01DX009 (ip), vehicle: saline with Tween-80
[6] = dose: 100.0 mg/kg/injection, schedule: Q04DX003 (ip), vehicle: Klucel (hydroxypropylcellulose) (HPC)
[7] = dose: 200.0 mg/kg/injection, schedule: Q01DX009 (ip), vehicle: saline with Tween-80
[8] = dose: 200.0 mg/kg/injection, schedule: Q04DX003 (ip), vehicle: Klucel (hydroxypropylcellulose) (HPC)
[9] = dose: 400.0 mg/kg/injection, schedule: Q04DX003 (ip), vehicle: Klucel (hydroxypropylcellulose) (HPC)
[10] = dose: 100.0 mg/kg/injection, schedule: Q01DX001 (ip), vehicle: carboxymethylcellulose (CMC)
[11] = dose: 100.0 mg/kg/injection, schedule: Q04DX002 (ip), vehicle: other
[12] = dose: 200.0 mg/kg/injection, schedule: Q04DX002 (ip), vehicle: other
[13] = dose: 100.0 mg/kg/injection, schedule: Q04DX003 (ip), vehicle: saline with Tween-80
[14] = dose: 200.0 mg/kg/injection, schedule: Q04DX003 (ip), vehicle: saline with Tween-80
[15] = dose: 400.0 mg/kg/injection, schedule: Q04DX003 (ip), vehicle: saline with Tween-80
[16] = dose: 100.0 mg/kg/injection, schedule: Q01DX009 (ip), vehicle: Klucel (hydroxypropylcellulose) (HPC)
[17] = dose: 200.0 mg/kg/injection, schedule: Q01DX009 (ip), vehicle: Klucel (hydroxypropylcellulose) (HPC)

Measured: T/C

NCCc1ccc(F)cc1
inactive: dose: 100.0 mg/kg/injection, schedule: Q01DX009 (ip), vehicle: saline 109 % of control | dose: 200.0 mg/kg/injection, schedule: Q01DX009 (ip), vehicle: saline 97 % of control

Cc1ccc(C(=O)c2ccccc2Cc2ccc3ccccc3c2)cc1
inactive: [1] 100 % of control | [2] 94 % of control | [3] 96 % of control | [4] 93 % of control

O=C(CC1C(=O)Nc2ccccc21)CC1C(=O)Nc2ccccc21 (centres undefined)
inactive: dose: 100.0 mg/kg/injection, schedule: Q04DX002 (ip), vehicle: Klucel (hydroxypropylcellulose) (HPC) 102 % of control | dose: 200.0 mg/kg/injection, schedule: Q04DX002 (ip), vehicle: Klucel (hydroxypropylcellulose) (HPC) 97 % of control | dose: 400.0 mg/kg/injection, schedule: Q04DX002 (ip), vehicle: Klucel (hydroxypropylcellulose) (HPC) 102 % of control

Cc1ccc(S(=O)(=O)Oc2cc(C)ccc2C)cc1
inactive: [5] 100 % of control | [6] 97 % of control | [7] 93 % of control | [8] 92 % of control | dose: 400.0 mg/kg/injection, schedule: Q01DX009 (ip), vehicle: saline with Tween-80 101 % of control | [9] 91 % of control

O=c1[nH]c(=O)n(C2CC(O)C(CO)O2)cc1Br (centres undefined)
inactive: dose: 50.0 mg/kg/injection, schedule: Q02DX Z (ip), vehicle: carboxymethylcellulose (CMC) 108 % of control | dose: 100.0 mg/kg/injection, schedule: Q02DX Z (ip), vehicle: carboxymethylcellulose (CMC) 107 % of control | dose: 150.0 mg/kg/injection, schedule: Q02DX Z (ip), vehicle: carboxymethylcellulose (CMC) 109 % of control | dose: 200.0 mg/kg/injection, schedule: Q02DX Z (ip), vehicle: carboxymethylcellulose (CMC) 113 % of control | dose: 250.0 mg/kg/injection, schedule: Q02DX Z (ip), vehicle: carboxymethylcellulose (CMC) 109 % of control | dose: 300.0 mg/kg/injection, schedule: Q02DX Z (ip), vehicle: carboxymethylcellulose (CMC) 113 % of control | dose: 400.0 mg/kg/injection, schedule: Q02DX Z (ip), vehicle: carboxymethylcellulose (CMC) 110 % of control | dose: 500.0 mg/kg/injection, schedule: Q02DX Z (ip), vehicle: carboxymethylcellulose (CMC) 114 % of control | dose: 600.0 mg/kg/injection, schedule: Q01DX009 (ip), vehicle: carboxymethylcellulose (CMC) 123 % of control | dose: 600.0 mg/kg/injection, schedule: Q02DX Z (ip), vehicle: carboxymethylcellulose (CMC) 122 % of control | dose: 800.0 mg/kg/injection, schedule: Q01DX Z (ip), vehicle: carboxymethylcellulose (CMC) 122 % of control | dose: 1000.0 mg/kg/injection, schedule: Q01DX Z (ip), vehicle: carboxymethylcellulose (CMC) 113 % of control | dose: 1800.0 mg/kg/injection, schedule: Q01DX009 (ip), vehicle: carboxymethylcellulose (CMC) 102 % of control

CCNC(=O)c1cc[n+](CC)c(/C=C/c2c[nH]c3ccccc23)c1
inactive: [10] 96 % of control | dose: 200.0 mg/kg/injection, schedule: Q01DX001 (ip), vehicle: carboxymethylcellulose (CMC) 98 % of control | dose: 400.0 mg/kg/injection, schedule: Q01DX001 (ip), vehicle: carboxymethylcellulose (CMC) 100 % of control

O=[N+]([O-])c1ccc(P(=O)(Nc2ccc(Cl)cc2)Nc2ccc(Cl)cc2)cc1
inactive: dose: 75.0 mg/kg/injection, schedule: Q01DX001 (ip), vehicle: saline 86 % of control | dose: 150.0 mg/kg/injection, schedule: Q01DX001 (ip), vehicle: saline 86 % of control | dose: 300.0 mg/kg/injection, schedule: Q01DX001 (ip), vehicle: saline 91 % of control

CCc1ccc(NC(=S)Nc2ccccc2)cc1
inactive: [11] 108 % of control | [12] 90 % of control

CC(C)(C)CC(C)(C)c1ccc(OCCOCCSC(=N)N)cc1
inactive: dose: 50.0 mg/kg/injection, schedule: Q01DX001 (ip), vehicle: carboxymethylcellulose (CMC) 93 % of control | [10] 98 % of control

CCCCOCC1CO1 (centres undefined)
inactive: [13] 92 % of control | [14] 95 % of control | [15] 98 % of control

c1ccc2c(c1)Cc1ccccc1C2
inactive: [11] 110 % of control | [12] 94 % of control | dose: 400.0 mg/kg/injection, schedule: Q04DX002 (ip), vehicle: other 113 % of control

CCOC(=O)Nc1cc2c(c(NC(=O)OCC)n1)N=C(C)CN2 (tested in a mixture with another compound)
inactive: dose: 100.0 mg/kg/injection, schedule: Q01DX001 (ip), vehicle: saline with Tween-80 95 % of control | dose: 200.0 mg/kg/injection, schedule: Q01DX001 (ip), vehicle: saline with Tween-80 95 % of control | dose: 200.0 mg/kg/injection, schedule: Q04DX002 (ip), vehicle: saline with Tween-80 95 % of control | dose: 400.0 mg/kg/injection, schedule: Q01DX001 (ip), vehicle: saline with Tween-80 95 % of control | dose: 400.0 mg/kg/injection, schedule: Q04DX002 (ip), vehicle: saline with Tween-80 103 % of control | dose: 600.0 mg/kg/injection, schedule: Q04DX002 (ip), vehicle: saline with Tween-80 103 % of control

CCOC(=O)C1SCSCC1=O (centres undefined)
inactive: [13] 102 % of control | [14] 98 % of control | [15] 98 % of control

COc1ccccc1CN1CCCN(Cc2ccccc2OC)C1c1cc(Cl)cc(Cl)c1O
inactive: [1] 98 % of control | [2] 111 % of control | [3] 104 % of control | [4] 98 % of control

COC1OC2COc3ccccc3OC2C(NC(N)=S)C1OC (centres undefined)
inactive: dose: 100.0 mg/kg/injection, schedule: Q01DX009 (ip), vehicle: gum acacia 107 % of control | dose: 200.0 mg/kg/injection, schedule: Q01DX009 (ip), vehicle: gum acacia 102 % of control | dose: 400.0 mg/kg/injection, schedule: Q01DX009 (ip), vehicle: gum acacia 93 % of control

O=C(N/N=C/c1ccc2c(c1)OCO2)c1ccccc1
inactive: [16] 93 % of control | [6] 101 % of control | [17] 96 % of control | [8] 104 % of control | dose: 400.0 mg/kg/injection, schedule: Q01DX009 (ip), vehicle: Klucel (hydroxypropylcellulose) (HPC) 86 % of control | [9] 98 % of control

CCOC(=O)C(CC(=O)c1ccccc1)C(C)=O (centres undefined)
inactive: dose: 50.0 mg/kg/injection, schedule: Q01DX009 (ip), vehicle: saline with Tween-80 97 % of control | [5] 93 % of control | [7] 97 % of control

CC(CO)(CO)N1C(=O)c2cccc3cc([N+](=O)[O-])cc(c23)C1=O
inactive: [16] 112 % of control | [17] 107 % of control

CC(C)(C)CC#N
inactive: dose: 5.0 mg/kg/injection, schedule: Q01DX001 (ip), vehicle: saline 100 % of control | dose: 10.0 mg/kg/injection, schedule: Q01DX001 (ip), vehicle: saline 106 % of control | dose: 20.0 mg/kg/injection, schedule: Q01DX001 (ip), vehicle: saline 102 % of control | dose: 40.0 mg/kg/injection, schedule: Q01DX001 (ip), vehicle: saline 106 % of control | dose: 80.0 mg/kg/injection, schedule: Q01DX001 (ip), vehicle: saline 100 % of control | [2] 94 % of control

Cc1cc(C)cc(OCC(=O)O)c1
inactive: [6] 95 % of control | [8] 90 % of control | [9] 106 % of control

CCC1=C(c2ccc(OC)cc2)C(C)Oc2cc(OC(C)=O)ccc21 (centres undefined)
inactive: dose: 50.0 mg/kg/injection, schedule: Q01DX001 (sc), vehicle: steriod suspending solution 101 % of control | dose: 100.0 mg/kg/injection, schedule: Q01DX001 (sc), vehicle: steriod suspending solution 101 % of control | dose: 200.0 mg/kg/injection, schedule: Q01DX001 (sc), vehicle: steriod suspending solution 97 % of control | dose: 400.0 mg/kg/injection, schedule: Q01DX001 (sc), vehicle: steriod suspending solution 103 % of control
